In series [1] the test system is Aβ levels in cerebrospinal fluid. The arrangement: method as in PMID 29719179. As to conditions: cited from earlier work.
Series [2] in a line: Oxygen radical absorbance capacity assay (ORAC). The settings on record: trolox taken as 1.0.
The target in series [3] is T1, recombinant hMAO-B (Homo sapiens, UniProt P27338).
T1 sequence (P27338 1-520): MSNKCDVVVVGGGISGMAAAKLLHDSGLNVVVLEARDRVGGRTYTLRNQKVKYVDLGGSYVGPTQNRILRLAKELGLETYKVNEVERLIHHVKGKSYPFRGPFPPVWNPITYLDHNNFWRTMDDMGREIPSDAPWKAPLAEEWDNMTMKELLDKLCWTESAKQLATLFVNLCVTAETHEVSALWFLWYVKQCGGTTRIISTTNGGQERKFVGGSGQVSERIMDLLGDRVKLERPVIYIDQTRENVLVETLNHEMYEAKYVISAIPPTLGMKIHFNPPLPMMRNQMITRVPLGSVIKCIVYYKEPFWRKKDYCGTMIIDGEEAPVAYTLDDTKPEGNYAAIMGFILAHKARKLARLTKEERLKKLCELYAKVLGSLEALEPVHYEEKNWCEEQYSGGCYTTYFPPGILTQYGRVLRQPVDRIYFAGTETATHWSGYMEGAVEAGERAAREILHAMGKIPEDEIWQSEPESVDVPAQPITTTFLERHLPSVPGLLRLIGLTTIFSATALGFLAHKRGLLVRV
Nature of the series: biochemical. The format is biochemical. As to conditions: mean ± SEM (n = 3); 100 µM highest concentration tested.

A short description of series [4]: In vitro blood-brain barrier permeation assay (PAMPA-BBB). The format is in vitro ADME. As to conditions: pig, pH 7.4, porcine brain lipid, PBS:ethanol (70:30), 25 °C, read-out: PAMPA-BBB permeability in the CNS (Pe). On the procedure:
Prediction of the brain penetration was evaluated using a parallel artificial membrane permeation assay (PAMPA-BBB), in a similar manner as previously described[36]^,[46]^,[51–53]. Pipetting was performed with a semi-automatic pipettor (CyBi®-SELMA) and UV reading with a microplate spectrophotometer (Multiskan Spectrum, Thermo Electron Co.). Commercial drugs, phosphate buffered saline solution at pH 7.4 (PBS), and dodecane were purchased from Sigma, Aldrich, Acros, and Fluka. Millex filter units (PVDF membrane, diameter 25 mm, pore size 0.45 μm) were acquired from Millipore. The porcine brain lipid (PBL) was obtained from Avanti Polar Lipids. The donor microplate was a 96-well filter plate (PVDF membrane, pore size 0.45 μm) and the acceptor microplate was an indented 96-well plate, both from Millipore. The acceptor 96-well microplate was filled with 200 μL of PBS: ethanol (70:30) and the filter surface of the donor microplate was impregnated with 5 μL of porcine brain lipid (PBL) in dodecane (20 mg mL^−1). Compounds were dissolved in PBS: ethanol (70:30) at 100 μg mL^−1, filtered through a Millex filter, and then added to the donor wells (200 μL). The donor filter plate was carefully put on the acceptor plate to form a sandwich, which was left undisturbed for 120 min at 25 °C. After incubation, the donor plate is carefully removed and the concentration of compounds in the acceptor wells was determined by UV-Vis spectroscopy. Every sample is analysed at five wavelengths, in four wells and at least in three independent runs, and the results are given as the mean ± standard deviation. In each experiment, 11 quality control standards of known BBB permeability were included to validate and normalise the analysis set.
To check if new compounds could be able to reach their CNS-targets, we used the in vitro parallel artificial membrane permeability assay for the blood-brain barrier (PAMPA-BBB) described by Di et al.[87], and partially modified by us for testing molecules with limited water-solubility[36]^,[46]^,[51–53]. The passive CNS-permeation of new compounds 1–13 through a lipid extract of porcine brain was measured at room temperature. In each experiment, 11 commercial drugs of known brain permeability were also tested and their permeability values normalised to the reported PAMPA-BBB data. […].
On the technique in general: The PAMPA barrier holds no transporters, so it reflects passive diffusion.

The target of series [5] is T2, σ1R (Cavia porcellus, UniProt Q60492).
T2 construct: the thawed membrane preparation of guinea pig brain cortex; from tissue; host or cells: guinea pig brain cortex membranes
In words: Sigma-1 receptor binding, [3H]-(+)-pentazocine competition. The arrangement: species or system guinea pig.

The target in series [6] is T3, σ2R (Rattus norvegicus, UniProt Q5U3Y7).
T3 construct: 150 µg of rat liver homogenate were incubated; from tissue; host or cells: rat liver homogenate
T3 sequence (Q5U3Y7 1-176): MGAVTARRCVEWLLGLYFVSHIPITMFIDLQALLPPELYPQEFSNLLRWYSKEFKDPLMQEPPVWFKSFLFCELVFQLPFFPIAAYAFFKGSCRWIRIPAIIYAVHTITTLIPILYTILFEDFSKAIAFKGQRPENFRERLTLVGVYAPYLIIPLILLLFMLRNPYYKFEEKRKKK
In words: Sigma-2 receptor binding, [3H]-DTG competition.

The target of series [7] is T4, human recombinant AChE (hAChE) (Homo sapiens, UniProt P22303).
T4 construct: purchased Sigma Chemical Co
Nature of the series: biochemical. As to conditions: mean ± SEM (n = 3); read-out: hAChE IC50. On the procedure: The Ellman method was followed, using human recombinant AChE and BuChE from human serum. The assay solution consisted of 0.1 M phosphate buffer pH 8.0, 400 μM 5,5´-dithiobis(2-nitrobenzoic acid) (DTNB, Ellman’s reagent), 0.05 U/mL hAChE (Sigma Chemical Co.) or 0.024 U/mL hBuChE (Sigma Chemical Co.), and 800 μM acetylthiocholine iodide, or 500 μM butyrylthiocholine as the substrate of the enzymatic reaction, respectively. The compounds tested were added to the assay solution and preincubated with the enzyme for 5 min at 30 °C. After that period, the substrate was added.

For series [8], the target named is T5, recombinant hMAO-A (Homo sapiens, UniProt P21397).
T5 sequence (P21397 1-527): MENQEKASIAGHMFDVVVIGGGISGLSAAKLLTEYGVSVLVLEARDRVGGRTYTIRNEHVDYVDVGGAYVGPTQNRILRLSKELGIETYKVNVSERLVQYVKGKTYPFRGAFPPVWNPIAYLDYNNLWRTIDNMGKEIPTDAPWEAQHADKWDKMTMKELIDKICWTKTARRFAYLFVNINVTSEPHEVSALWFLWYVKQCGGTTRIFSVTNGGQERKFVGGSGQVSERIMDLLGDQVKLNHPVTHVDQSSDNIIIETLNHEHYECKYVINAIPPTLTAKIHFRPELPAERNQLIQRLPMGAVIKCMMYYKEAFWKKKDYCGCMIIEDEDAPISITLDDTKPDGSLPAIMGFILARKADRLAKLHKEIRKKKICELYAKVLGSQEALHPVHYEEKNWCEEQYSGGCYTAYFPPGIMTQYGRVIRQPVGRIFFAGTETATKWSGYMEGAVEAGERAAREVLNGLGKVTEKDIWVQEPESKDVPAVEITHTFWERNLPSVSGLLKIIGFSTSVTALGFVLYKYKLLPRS
In words: biochemical. Format: biochemical.

“And” between values parts separate entries of the source, which are not always exact repeats. Equal values may be shown once.

T2 sequence (Q60492 whole entry): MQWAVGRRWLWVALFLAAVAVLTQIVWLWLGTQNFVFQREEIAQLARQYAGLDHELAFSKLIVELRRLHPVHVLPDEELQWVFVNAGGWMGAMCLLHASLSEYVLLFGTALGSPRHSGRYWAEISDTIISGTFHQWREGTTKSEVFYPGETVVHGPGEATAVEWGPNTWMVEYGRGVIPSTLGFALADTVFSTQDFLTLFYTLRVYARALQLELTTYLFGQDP
T4 sequence (P22303 32-614): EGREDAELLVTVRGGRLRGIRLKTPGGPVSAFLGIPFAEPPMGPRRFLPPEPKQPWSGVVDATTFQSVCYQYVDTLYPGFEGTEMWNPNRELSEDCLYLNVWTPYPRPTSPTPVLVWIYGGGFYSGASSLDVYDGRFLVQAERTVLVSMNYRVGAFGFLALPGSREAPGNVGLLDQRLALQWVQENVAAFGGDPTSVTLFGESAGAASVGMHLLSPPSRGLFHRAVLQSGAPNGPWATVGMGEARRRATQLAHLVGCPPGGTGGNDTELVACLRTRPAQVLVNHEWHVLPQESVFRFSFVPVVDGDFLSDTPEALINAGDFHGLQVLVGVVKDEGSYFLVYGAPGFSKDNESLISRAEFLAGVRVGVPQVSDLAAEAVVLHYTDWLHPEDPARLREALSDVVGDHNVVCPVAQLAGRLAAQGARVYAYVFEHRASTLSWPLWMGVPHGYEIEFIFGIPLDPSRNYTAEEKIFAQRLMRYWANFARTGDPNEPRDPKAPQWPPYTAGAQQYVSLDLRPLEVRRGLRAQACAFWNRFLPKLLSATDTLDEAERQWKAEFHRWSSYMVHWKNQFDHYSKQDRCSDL

For `CN1C(=N)N[C@](C)(c2cc(NC(=O)c3ccc(F)cn3)ccc2F)CS1(=O)=O` [verubecestat], the “reduction of Aβ levels in cerebrospinal fluid” value in series [1] was “up to 81%”.

As a reminder, the IC50 is the midpoint of a concentration-inhibition curve. Broadly, the Ki is a measure of affinity in units of concentration, obtained from inhibition or displacement. A lower Ki goes with higher affinity. For `CN(Cc1ccccc1)Cc1ccc(NC(=O)c2cc(=O)c3c(O)cc(O)cc3o2)cc1` [Compound 4, N-(4-((Benzyl(methyl)amino)methyl)phenyl)-5,7-dihydroxy-4-oxo-4H-chromene-2-carboxamide], in series [2], the “ORAC, trolox equivalents” value is 1.2 mmol of trolox/mmol of tested compound and 1.2 ± 0.1 mmol of trolox/mmol of tested compound. For the same compound, the IC50 in series [3] is over 100 µM; in series [7], 1.9 ± 0.6 µM; in series [8] (mean ± SEM (n = 3), 100 µM highest concentration tested), 22.8 ± 1.5 µM. Also, in series [4], the Papp at 120 min, 100 μg mL^−1 was found to be 14.7 ± 1.2 ×10⁻⁶ cm/s. The Ki in series [5] was 0.51 ± 0.07 µM; in series [6], over 3 µM. Moreover, in series [5], the “Selectivity vs. σ1R (Kiσ2R/Kiσ1R)” value is given as over 5.9. The “preference for hMAO-A compared to hMAO-B” value in series [8] is given as “at least 4.4 times”.
